How the values were obtained:
[1] = Concentration of the nanosuspension and appearance / physical stability; assay type: physicochemical
Experimental: (§1) A solution of TCO (1 mg) in hexafluoroisopropanol (HFIP) (0.5 mL) was prepared and added slowly into a magnetically stirred into phosphate buffered saline (PBS) (2 mL) having a pH of 7.4. The mixture was stirred uncovered in a fume hood for up to 24 hours. FIG. 1 illustrates the particle size distribution of suspension of TCO in pH 7.4 PBS at 0.5 mg/mL concentration. […] The clear nanoparticle suspension was further concentrated in a vacuum oven to about 1.5 mg/mL.
A solution of TCO (1 mg) in hexafluoroisopropanol (0.5 mL) was prepared and added slowly into a magnetically stirred deionized water (2 mL). The mixture was stirred uncovered in a fume hood for 3 hours and further concentrated in a vacuum oven. The nanoparticle suspension in deionized water, however, could only be concentrated to about 0.6 mg/mL of concentration before growing micron-sized crystals.

[2] = Particle size distribution of the nanoparticle suspension (Beckman Coulter PCS Submicron Particle Size Analyzer); assay type: physicochemical; details: suspension of TCO in PBS pH 7.4, 0.5 mg/mL (FIG. 1)
Experimental: The particle size of the pharmaceutically active compound in the nanosuspension may be in the range of 100 nm to 1000 nm, including all values and increments therein, such as in the range of 250 nm to 1,000 nm, etc. Illustrated in FIG. 1 is an exemplary embodiment of a numerical particle size distribution of suspension of TCO in PBS having a pH of 7.4 and at a concentration of 0.5 mg/mL. […] In addition, the highest relative number percent of particles fall in the range of about 450-525 nm. Such particle size determination may be accomplished on a Beckman Coulter PCS Submicron Particle Size Analyzer. Accordingly, a nanosuspension herein may be understood as any liquid medium containing pharmaceutically active compounds having particles with a size of less than or equal to about 1000 nm.
as §1

## triamcinolone [TCO]
[1]; 1.0 mg/ML, precipitating 2 mg/0.5 mL TCO/HFIP into 2 mL PBS
  appearance of nanosuspension: cloudy solution
[1]; PBS pH 7.4, 1 mg TCO/0.5 mL HFIP into 2 mL PBS, vacuum oven
  concentration to which the clear nanoparticle suspension was further concentrated: about 1.5 mg/mL
[1]; deionized water, 1 mg TCO/0.5 mL HFIP into 2 mL water, vacuum oven
  concentration reached before growing micron-sized crystals: about 0.6 mg/mL
[2]
  particle size range with the highest relative number percent of particles: 450-525 nm

Reference: patent US8946200B2, “Pharmaceutically active nanosuspensions” (Southwest Research Institute, priority 2006, dated 2015)
